US9994515B2, “Aryl naphthyl methanone oxime(s) and process for preparation thereof” (Council of Scientific & Industrial Research, priority 2013, dated 2018)
Where a name gives a salt, the structure may show the parent alone.

Molecular target: T1, BCR-ABL (Homo sapiens, UniProt P00519)
T1 construct: Centans causes growth arrest and apoptosis in Bcr-Abl positive K562 cells; BCR (N-terminal part of breakpoint cluster region protein, P11274); endogenous in cells; host or cells: K562; the other entry of the earlier key: BCR (P11274, Breakpoint cluster region protein)
T1 sequence (P00519 with tags, fused parts or gaps): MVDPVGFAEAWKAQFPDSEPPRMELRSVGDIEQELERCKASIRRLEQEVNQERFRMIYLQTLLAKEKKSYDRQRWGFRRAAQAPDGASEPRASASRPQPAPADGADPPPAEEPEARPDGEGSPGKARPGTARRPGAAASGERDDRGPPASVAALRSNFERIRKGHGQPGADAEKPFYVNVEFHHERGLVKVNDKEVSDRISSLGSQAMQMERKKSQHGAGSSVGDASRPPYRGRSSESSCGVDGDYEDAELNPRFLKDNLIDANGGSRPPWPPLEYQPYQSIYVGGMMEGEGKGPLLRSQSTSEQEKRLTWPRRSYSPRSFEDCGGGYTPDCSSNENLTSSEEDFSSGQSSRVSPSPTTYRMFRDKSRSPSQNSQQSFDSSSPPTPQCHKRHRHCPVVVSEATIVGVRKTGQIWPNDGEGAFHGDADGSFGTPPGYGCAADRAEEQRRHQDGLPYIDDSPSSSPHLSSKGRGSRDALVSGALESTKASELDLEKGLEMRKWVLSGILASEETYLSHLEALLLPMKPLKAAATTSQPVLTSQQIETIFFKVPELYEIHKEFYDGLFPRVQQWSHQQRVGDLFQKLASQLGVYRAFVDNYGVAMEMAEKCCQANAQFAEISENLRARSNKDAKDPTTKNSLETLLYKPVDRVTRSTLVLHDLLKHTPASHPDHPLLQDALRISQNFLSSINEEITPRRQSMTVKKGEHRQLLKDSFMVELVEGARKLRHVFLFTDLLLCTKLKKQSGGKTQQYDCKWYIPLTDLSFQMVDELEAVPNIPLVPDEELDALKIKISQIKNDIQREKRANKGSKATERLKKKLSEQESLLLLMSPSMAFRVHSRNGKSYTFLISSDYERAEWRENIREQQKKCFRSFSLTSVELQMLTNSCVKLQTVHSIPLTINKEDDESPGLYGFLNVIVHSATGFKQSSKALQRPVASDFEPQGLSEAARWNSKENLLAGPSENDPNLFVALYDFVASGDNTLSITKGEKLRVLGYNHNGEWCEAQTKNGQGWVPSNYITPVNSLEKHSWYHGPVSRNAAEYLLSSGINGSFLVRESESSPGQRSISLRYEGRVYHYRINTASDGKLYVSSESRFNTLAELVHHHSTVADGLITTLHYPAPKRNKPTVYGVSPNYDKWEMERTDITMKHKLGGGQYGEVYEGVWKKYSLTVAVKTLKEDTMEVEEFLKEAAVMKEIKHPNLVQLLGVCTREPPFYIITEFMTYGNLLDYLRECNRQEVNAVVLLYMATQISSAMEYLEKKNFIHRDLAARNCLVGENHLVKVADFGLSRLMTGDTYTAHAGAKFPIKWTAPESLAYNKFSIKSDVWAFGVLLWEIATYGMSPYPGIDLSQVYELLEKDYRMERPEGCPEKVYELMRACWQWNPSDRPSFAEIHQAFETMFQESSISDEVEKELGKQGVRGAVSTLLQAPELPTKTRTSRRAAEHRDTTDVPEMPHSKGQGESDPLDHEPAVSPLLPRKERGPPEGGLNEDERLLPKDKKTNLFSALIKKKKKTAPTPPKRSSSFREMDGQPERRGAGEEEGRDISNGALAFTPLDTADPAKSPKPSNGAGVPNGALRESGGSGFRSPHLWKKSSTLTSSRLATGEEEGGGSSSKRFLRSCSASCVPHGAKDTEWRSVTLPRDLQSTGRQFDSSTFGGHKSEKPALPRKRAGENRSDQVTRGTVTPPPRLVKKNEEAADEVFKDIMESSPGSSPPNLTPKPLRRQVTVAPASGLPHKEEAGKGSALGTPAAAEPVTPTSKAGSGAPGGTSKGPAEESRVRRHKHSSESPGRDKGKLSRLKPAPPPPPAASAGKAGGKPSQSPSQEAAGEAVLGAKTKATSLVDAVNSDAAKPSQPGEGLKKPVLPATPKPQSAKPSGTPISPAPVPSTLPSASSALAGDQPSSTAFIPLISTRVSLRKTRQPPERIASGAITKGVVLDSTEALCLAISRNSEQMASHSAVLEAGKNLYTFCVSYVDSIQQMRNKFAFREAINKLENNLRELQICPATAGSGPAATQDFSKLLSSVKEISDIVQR
Assay: BCR-ABL phosphorylation by immunoblotting in K562 cells
Assay type: cell-based
Settings: 0.5 μM, 1 μM Centans or 1 μM Imatinib, 48 h, western blot
Experimental: Kinase activity of Bcr-Abl is the major cause of CML, and since Centans causes growth arrest and apoptosis in Bcr-Abl positive K562 cells, phosphorylation status of Bcr-Abl which is representative of its kinase activity was measured by immunoblotting.
FIG. 3. […] ELF4E and β-actin were used as loading control.

CCN(CC)CCO/N=C(/c1ccc(SC)cc1)c1cccc2ccccc12 [Compound 5d, (4-(methylthio)phenyl)(naphthalen-1-yl)methanone O-2-(diethylamino)ethyl oxime oxalate]
phosphorylation of BCR-ABL (pBCR-ABL): dose dependently inhibited phosphorylation of BCR-ABL
